Series [1] can be described thus: Stability of compound in DMSO. It is filed as physicochemical.
The next series deals with SCC-25. The series is described as follows: Cytotoxicity against human SCC25 cells assessed as reduction in cell viability after 6 days by SRB assay. It is filed as functional, cell-based. (In general: Sulforhodamine B stains cellular protein and so reports cell mass.)
For a further series, the system named is CAL-27. Nature of the series: Cytotoxicity against human CAL27 cells assessed as reduction in cell viability after 6 days by SRB assay. In kind it is functional, cell-based.
The subject of the next series is Nakaseomyces glabratus. The series is described as follows: Antifungal activity against Candida glabrata ATCC 90030 assessed as reduction in microbial growth up to 200 uM incubated for 24 to 48 hrs. It is filed as functional, organism-based.
A further series has as its system SCC-9. Nature of the series: Cytotoxicity against human SCC9 cells assessed as reduction in cell viability after 6 days by SRB assay. It is filed as functional, cell-based.
For the next series, the system named is Candida albicans. Nature of the series: Antifungal activity against Candida albicans ATCC 90028 assessed as reduction in microbial growth up to 200 uM incubated for 24 to 48 hrs. In kind it is functional, organism-based.
The subject of series [2] is [Candida] auris. The series is described as follows: Antifungal activity against Candida auris CBS 10913 assessed as reduction in microbial growth up to 200 uM incubated for 24 to 48 hrs. It is filed as functional, organism-based. As to conditions: Candidozyma auris.
A further series relates to MCF7. The series is described as follows: Cytotoxicity against human MCF7 cells assessed as reduction in cell viability after 6 days by SRB assay. In kind it is functional, cell-based.
For another series, the system named is NFF. The series is described as follows: Cytotoxicity against human NFF cells assessed as reduction in cell viability after 6 days by SRB assay. It is filed as cell-based. As to conditions: 144 h.
In another series the test system is SCC-15. The series is described as follows: Cytotoxicity against human SCC15 cells assessed as reduction in cell viability after 6 days by SRB assay. In kind it is functional, cell-based.
In series [3] the test system is [Candida] auris. The series is described as follows: Antifungal activity against Candida auris CBS 12373 assessed as reduction in microbial growth up to 200 uM incubated for 24 to 48 hrs. In kind it is functional, organism-based. The following applies: Candidozyma auris.
The subject of a further series is Pichia kudriavzevii. The series is described as follows: Antifungal activity against Pichia kudriavzevii ATCC 6258 assessed as reduction in microbial growth up to 200 uM incubated for 24 to 48 hrs. It is filed as functional, organism-based.
A further series relates to MM96L. Nature of the series: Cytotoxicity against human MM96L cells assessed as reduction in cell viability after 6 days by SRB assay. It is filed as functional, cell-based.
In another series the test system is FaDu. Nature of the series: Cytotoxicity against human FADU cells assessed as reduction in cell viability after 6 days by SRB assay. In kind it is functional, cell-based.

Active and inactive are the calls of the source. No cut-off for these calls is given here.

Take `C[C@@H]1CCC[C@@]2(C)[C@H](C1=O)[C@@H](C(C)(C)O)C[C@@H]2O`: the Stability result in [1] is on record as “Unstable”.

With `C/C1=C/CC[C@@]2(C)O[C@@H]2CC(C)(C)/C=C/C1=O`, the outcome (in the series on SCC-25; in the series with CAL-27; in the series with Nakaseomyces glabratus; in the series with SCC-9; in the series with Candida albicans; in [Candida] auris [2]) was inactive. In addition, the outcome (in the series on MCF7; in the series with SCC-15; in series [Candida] auris [3]; with Pichia kudriavzevii; in the series with MM96L; in the series on FaDu) was inactive. Also, the Activity entry in the series with NFF is given as “Non-Toxic”.

Take `C/C1=C\CC[C@@]2(C)O[C@@H]2CC(C)(C)/C=C/C1=O` [ZERUMBONE EPOXIDE]: the result with SCC-25, in the series on CAL-27, in the series with SCC-9, in the series with MCF7, in the series on SCC-15 and in the series with MM96L was inactive. Moreover, in the series with FaDu, the result was inactive. In the series with NFF, the Activity entry is given as “Non-Toxic”.

The record behind these values is ChEMBL document CHEMBL4616655, “Kalparinol, a Salvialane (Isodaucane) Sesquiterpenoid Derived from Native Australian Dysphania Species That Suggests a Putative Biogenetic Link to Zerumbone” (J Nat Prod, 2020).
